Data as given in US11406619B2, “Injectable formulations” (priority 2020, dated 2022).
Marks after values point to notes of the source that are not given here.

Experiment: pH readings of formulations at preparation and on storage
Format: physicochemical
Details: for pH / drop in pH on preparation: 2.5 mg/mL in 40 mM B-R buffer
Procedure: pH readings were obtained using a Mettler Toledo MP225 pH meter. The electrode probe was inserted into the test solutions, contained in a glass vial, with brief stirring at ambient temperature.
Instrument verification was performed prior and post each use using, as supplied, pH buffer solutions over the range pH 1.68 to 10.01 for confirmation of accuracy.

[1] = phosphate buffer pH 7.4 in 0.45% w/v sodium chloride, both 30 mM and 50 mM buffer strengths

## DMT fumarate [SPL026]
Nominal pH 4.0, Day 7 (7 days 40° C.)
  pH: 3.84
Nominal pH 4.0, Day 17 (10 days 40° C. then 7 days 50° C.)
  pH: 3.84
Nominal pH 4.0, Initial
  pH: 3.86
Nominal pH 5.0, Day 7 (7 days 40° C.)
  pH: 4.55
Nominal pH 5.0, Day 17 (10 days 40° C. then 7 days 50° C.)
  pH: 4.52
Nominal pH 5.0, Initial
  pH: 4.57
Nominal pH 6.0, Day 7 (7 days 40° C.)
  pH: 5.07
Nominal pH 6.0, Day 17 (10 days 40° C. then 7 days 50° C.)
  pH: 5.06
Nominal pH 6.0, Initial
  pH: 5.08
Nominal pH 6.5, Day 7 (7 days 40° C.)
  pH: 5.33
Nominal pH 6.5, Day 17 (10 days 40° C. then 7 days 50° C.)
  pH: 5.31
Nominal pH 6.5, Initial
  pH: 5.33
Nominal pH 6.5 sparged N2, Day 17 (10 days 40° C. then 7 days 50° C.)
  pH: 6.09
Nominal pH 6.5 sparged N2, Initial
  pH: 6.12
Nominal pH 7.0, Day 7 (7 days 40° C.)
  pH: 6.10
Nominal pH 7.0, Day 17 (10 days 40° C. then 7 days 50° C.)
  pH: 6.10
Nominal pH 7.0, Initial
  pH: 6.12
Nominal pH 7.0 UV Light, pH on completion of testing
  pH: 6.07^a
Nominal pH 7.5, Day 7 (7 days 40° C.)
  pH: 6.58
Nominal pH 7.5, Day 17 (10 days 40° C. then 7 days 50° C.)
  pH: 6.59
Nominal pH 7.5, Initial
  pH: 6.60
Nominal pH 8.0, Day 7 (7 days 40° C.)
  pH: 6.86
Nominal pH 8.0, Day 17 (10 days 40° C. then 7 days 50° C.)
  pH: 6.84
Nominal pH 8.0, Initial
  pH: 6.87
Nominal pH 9.0, Day 7 (7 days 40° C.)
  pH: 7.72
Nominal pH 9.0, Day 17 (10 days 40° C. then 7 days 50° C.)
  pH: 7.70
Nominal pH 9.0, Initial
  pH: 7.71
pH 4 formulation
  drop in pH on preparation: 0.14 units
pH 9 formulation
  drop in pH on preparation: 1.29 units
10 mg/mL in the aqueous vehicles of the initial tests
  pH of the solutions: 3-4
20 mg/mL in B-R buffer, overnight storage under ambient conditions
  pH after overnight storage: no changes from the initial pH values
Phosphate buffer at 20 mM
  initial pH: 5.9
  pH on storage of the solution overnight in the laboratory: continued to drop
[1]
  initial pH: > 6.5
  pH on storage: remained stable
